Experiments:
Format in all cases: biochemical
CDK6/Cyclin D3 = CDK6/Cyclin D3 (Homo sapiens (Human), UniProt Q00534); assay: CDK6/Cyclin D3 ADP-Glo Kinase Assay; settings: read-out: CDK6/CyclinD3 IC50
Procedure: CDK6/Cyclin D3 ADP-Glo Kinase Assay
(§1) The purpose of the CDK6/Cyclin D3 assay is to evaluate the inhibition (% inhibition and IC50 values) in the presence of small molecule inhibitors by using a Luminescent based ADP-Glo assay. CDK6/Cyclin D3 catalyzes the production of ADP from ATP. ADP-Glo assay monitors ADP producing biochemical reactions. ADP-Glo is performed in 2 steps upon completion of kinase reaction: a combined termination of kinase reaction and depletion of remaining ATP in the first step, and conversion of generated ADP to ATP and the newly produced ATP to light output using luciferase/luciferin reaction in the second step. The luminescent signal generated is proportional to the ADP concentration produced and is correlated with the kinase activity. CDK6/Cychin D3 was purchased from Carna. […] The assay was initiated with the addition of ATP-containing substrate solution, following a 30-minute pre-incubation of enzyme and inhibitor at room temperature in the reaction mixture. The reaction was stopped after 90 minutes at room temperature by the addition of 10 μL of ADP-GLO Reagent. After a 90-minute incubation, 20 μL of Kinase Detection Reagent was added. Samples were incubated for 40 minutes, after which plate well luminescence was measured on a Envision microplate reader. The IC50 determinations were made from a plot of the fractional velocity as a function of inhibitor concentration fit to the 4 parameters IC50 equation.

CDK1/Cyclin B1 = CDK1/Cyclin B1 (Homo sapiens (Human), UniProt P06493); assay: CDK1/Cyclin B1 ADP-Glo Kinase Assay
Procedure: CDK1/Cyclin B1 ADP-Glo Kinase Assay
as §1, with “CDK1/Cyclin Bi” for “the CDK6/Cyclin D3”, “values)” for “values) in the presence”, “CDK1/Cyclin B1” for “CDK6/Cyclin D3”, “CDK1/Cyclin B1” for “CDK6/Cychin D3”, “Carna (Cat 04-102).” for “Carna.”, “90 minute” for “90-minute”

CDK4/Cyclin D1 = CDK4/Cyclin D1 (Homo sapiens (Human), UniProt P11802); assay: CDK4/Cyclin D1 CHEF Assay; settings: AQT; read-out: CDK4/CyclinD1 AQT IC50
Excerpt: CDK4/Cyclin D1 CHEF Assay
The purpose of CDK4/Cyclin Dl assay is to evaluate the inhibition (% inhibition and IC50 values) of small molecule inhibitors by using a Chelation-Enhance Fluorescence (CHEF) assay. In a CHEF assay, phosphorylation of a peptide substrate results in proportional increase in fluorescence. CHEF kinase assay use peptide substrates containing a synthetic alpha-amino acid with a side chain bearing an 8-hydroxyquinoline derivative (sulfonamido-oxide, Sox). Upon phosphorylation of a nearby serine, threonine or tyrosine and in the presence of Mg(II), the spectral properties of the Sox residue are altered, emitting 485 nm wavelength light when excited with a 360 nm wavelength light source. CDK4/Cyclin D1 catalyzes the phosphoryl transfer to the SOX-labeled substrate peptide AQT0258 from Assayquant Technologies. […] The reaction was initiated with the addition of substrate solution, following a 30-minute pre-incubation of enzyme and inhibitor at 22° C. in the reaction mix. Reactions were allowed to proceed for 3 hrs at 22° C., followed by fluorescence read of the reaction. The IC50 determinations were made from a plot of the fractional velocity as a function of inhibitor concentration fit to the 4 parameters IC50 equation.

CDK4/Cyclin D1, sequence (P11802 whole entry, species assumed): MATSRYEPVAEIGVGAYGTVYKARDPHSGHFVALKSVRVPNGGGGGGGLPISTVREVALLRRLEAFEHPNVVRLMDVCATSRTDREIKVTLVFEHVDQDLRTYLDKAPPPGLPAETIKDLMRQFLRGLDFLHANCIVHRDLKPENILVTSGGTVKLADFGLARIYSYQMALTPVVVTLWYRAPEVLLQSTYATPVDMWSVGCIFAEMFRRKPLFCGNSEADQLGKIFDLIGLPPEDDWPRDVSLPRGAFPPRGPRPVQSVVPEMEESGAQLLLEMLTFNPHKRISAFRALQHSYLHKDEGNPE
CDK4/Cyclin D1, sequence (P24385 whole entry partner, species assumed): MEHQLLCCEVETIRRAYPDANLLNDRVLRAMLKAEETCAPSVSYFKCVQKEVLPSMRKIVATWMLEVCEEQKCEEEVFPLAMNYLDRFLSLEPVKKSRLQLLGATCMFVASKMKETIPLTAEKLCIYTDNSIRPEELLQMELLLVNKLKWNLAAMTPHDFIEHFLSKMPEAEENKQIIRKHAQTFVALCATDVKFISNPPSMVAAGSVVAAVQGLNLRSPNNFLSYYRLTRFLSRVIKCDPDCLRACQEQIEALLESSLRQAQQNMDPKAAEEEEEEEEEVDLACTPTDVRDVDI
CDK1/Cyclin B1, sequence (P06493 whole entry): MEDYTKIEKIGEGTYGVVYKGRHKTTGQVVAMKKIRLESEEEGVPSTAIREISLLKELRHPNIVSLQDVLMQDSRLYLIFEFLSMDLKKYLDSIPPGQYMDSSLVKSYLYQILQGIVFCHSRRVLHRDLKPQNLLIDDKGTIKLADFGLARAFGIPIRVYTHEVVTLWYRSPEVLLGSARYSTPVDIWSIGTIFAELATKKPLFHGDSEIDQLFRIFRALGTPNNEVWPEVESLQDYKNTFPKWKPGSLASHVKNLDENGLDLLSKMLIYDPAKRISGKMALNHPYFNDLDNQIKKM
CDK1/Cyclin B1, sequence (P14635 whole entry partner): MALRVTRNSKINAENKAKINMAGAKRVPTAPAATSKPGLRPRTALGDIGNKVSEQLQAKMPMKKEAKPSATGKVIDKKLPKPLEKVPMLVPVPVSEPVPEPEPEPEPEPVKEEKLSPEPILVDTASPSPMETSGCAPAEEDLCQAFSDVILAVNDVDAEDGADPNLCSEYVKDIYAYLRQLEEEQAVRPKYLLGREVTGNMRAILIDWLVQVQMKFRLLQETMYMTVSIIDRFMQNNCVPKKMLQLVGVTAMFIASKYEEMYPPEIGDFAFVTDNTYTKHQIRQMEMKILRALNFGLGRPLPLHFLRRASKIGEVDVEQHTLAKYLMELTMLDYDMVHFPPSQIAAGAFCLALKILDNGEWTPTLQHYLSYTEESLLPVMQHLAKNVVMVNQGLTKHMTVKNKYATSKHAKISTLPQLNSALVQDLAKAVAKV
CDK6/Cyclin D3, sequence (Q00534 whole entry): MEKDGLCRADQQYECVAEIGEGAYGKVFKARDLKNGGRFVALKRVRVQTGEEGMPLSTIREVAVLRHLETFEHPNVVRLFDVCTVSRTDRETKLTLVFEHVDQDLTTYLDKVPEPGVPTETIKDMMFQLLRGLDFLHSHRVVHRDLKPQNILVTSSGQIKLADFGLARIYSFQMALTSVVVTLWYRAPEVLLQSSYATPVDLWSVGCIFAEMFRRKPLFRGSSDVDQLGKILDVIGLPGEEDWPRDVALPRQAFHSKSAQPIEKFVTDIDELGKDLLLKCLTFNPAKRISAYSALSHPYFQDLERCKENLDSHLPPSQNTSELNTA
CDK6/Cyclin D3, sequence (P30281 whole entry partner): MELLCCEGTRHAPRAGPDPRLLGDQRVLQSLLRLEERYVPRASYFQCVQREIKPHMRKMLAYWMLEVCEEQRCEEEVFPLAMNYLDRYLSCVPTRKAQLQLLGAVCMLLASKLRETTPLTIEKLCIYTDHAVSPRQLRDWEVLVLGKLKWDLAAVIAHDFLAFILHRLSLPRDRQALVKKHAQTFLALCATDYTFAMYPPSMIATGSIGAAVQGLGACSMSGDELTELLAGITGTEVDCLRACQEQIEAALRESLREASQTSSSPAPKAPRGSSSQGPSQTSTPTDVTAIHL

Structure (SMILES) | IC50 (CDK6/Cyclin D3) | IC50 (CDK1/Cyclin B1) | IC50 (CDK4/Cyclin D1)
Cc1cc2cnc(NC3CCN(S(C)(=O)=O)CC3)nc2c(N2CCC3(C2)CC(F)(F)C3)n1 [Compound 53, 8-(2,2-difluoro-6-azaspiro[3.4]octan-6-yl)-6-methyl-N-(1-(methylsulfonyl)piperidin-4-yl)pyrido[3,4-d]pyrimidin-2-amine] | < 200 nM | > 2000 nM | < 200 nM
Cc1cc2cnc(NC3CCN(S(C)(=O)=O)CC3)nc2c(N2CCC3(CC3)C2)n1 [Compound 54, 6-methyl-N-(1-(methylsulfonyl)piperidin-4-yl)-8-(5-azaspiro[2.4]heptan-5-yl)pyrido[3,4-d]pyrimidin-2-amine] | < 200 nM | < 200 nM | < 200 nM
O=S(=O)(CC1CCC1)N1CCC(Nc2ncc3cc(C(F)F)nc(N4CC5(CCNC5)C4)c3n2)CC1 [Compound 55] | < 200 nM | < 200 nM | < 200 nM
Cc1cc2cnc(NC3CCN(S(=O)(=O)C4CC4)CC3)nc2c(N2CC(O)(C3CC3)C2)n1 [Compound 56, 3-cyclopropyl-1-(2-((1-(cyclopropylsulfonyl)piperidin-4-yl)amino)-6-methylpyrido[3,4-d]pyrimidin-8-yl)azetidin-3-ol] | < 200 nM | < 200 nM | < 200 nM
Cc1cc2cnc(NC3CCN(S(=O)(=O)C4CC4)CC3)nc2c(N2CCC(OC(F)F)C2)n1 (stereo not drawn) [Compound 58, N-(1-(cyclopropylsulfonyl)piperidin-4-yl)-8-(3-(difluoromethoxy)pyrrolidin-1-yl)-6-methylpyrido[3,4-d]pyrimidin-2-amine] | < 200 nM | < 200 nM | < 200 nM
CS(=O)(=O)N1CCC(Nc2ncc3cc(C4CC4)nc(N4CC(F)(F)C5(CNC5)C4)c3n2)CC1 [Compound 60, 6-cyclopropyl-8-(8,8-difluoro-2,6-diazaspiro[3.4]octan-6-yl)-N-(1-(methylsulfonyl)piperidin-4-yl)pyrido[3,4-d]pyrimidin-2-amine] | < 200 nM | < 200 nM | < 200 nM
Cc1cc2cnc(NC3CCN(S(=O)(=O)C4CC4)CC3)nc2c(N2CC3(CCNCC3(F)F)C2)n1 [Compound 61, N-(1-(cyclopropylsulfonyl)piperidin-4-yl)-8-(5,5-difluoro-2,7-diazaspiro[3.5]nonan-2-yl)-6-methylpyrido[3,4-d]pyrimidin-2-amine] | < 200 nM | < 200 nM | < 200 nM
Cc1cc2cnc(NC3CCN(S(=O)(=O)C4CC4)CC3)nc2c(N2CC(F)(F)C3(CNC3)C2)n1 [Compound 62, N-(1-(cyclopropylsulfonyl)piperidin-4-yl)-8-(8,8-difluoro-2,6-diazaspiro[3.4]octan-6-yl)-6-methylpyrido[3,4-d]pyrimidin-2-amine] | < 200 nM | < 200 nM | < 200 nM
CS(=O)(=O)N1CCC(Nc2ncc3cc(C(F)F)nc(N4CC5(CNCCC5(F)F)C4)c3n2)CC1 [Compound 65] | < 200 nM | < 200 nM | < 200 nM
COC1CC2(C1)CN(c1nc(C)cc3cnc(NC4CCN(S(=O)(=O)C5CC5)CC4)nc13)C2 [Compound 71, N-(1-(cyclopropylsulfonyl)piperidin-4-yl)-8-(6-methoxy-2-azaspiro[3.3]heptan-2-yl)-6-methylpyrido[3,4-d]pyrimidin-2-amine] | < 200 nM | 200 to 500 nM | < 200 nM
COC1CC2(C1)CN(c1nc(C3CC3)cc3cnc(NC4CCN(S(C)(=O)=O)CC4)nc13)C2 [Compound 75, 6-cyclopropyl-8-(6-methoxy-2-azaspiro[3.3]heptan-2-yl)-N-(1-(methylsulfonyl)piperidin-4-yl)pyrido[3,4-d]pyrimidin-2-amine] | < 200 nM | > 2000 nM | < 200 nM
COC1CC2(C1)CN(c1nc(C)cc3cnc(NC4CCN(S(C)(=O)=O)CC4)nc13)C2 [Compound 76, 8-(6-methoxy-2-azaspiro[3.3]heptan-2-yl)-6-methyl-N-(1-(methylsulfonyl)piperidin-4-yl)pyrido[3,4-d]pyrimidin-2-amine] | < 200 nM | 200 to 500 nM | < 200 nM
Cc1cc2cnc(NC3CCN(S(C)(=O)=O)CC3)nc2c(N2CC3(CCC(=O)N3)C2)n1 [Compound 77, 2-(6-methyl-2-((1-(methylsulfonyl)piperidin-4-yl)amino)pyrido[3,4-d]pyrimidin-8-yl)-2,5-diazaspiro[3.4] octan-6-one] | < 200 nM | 200 to 500 nM | < 200 nM
Cc1cc2cnc(NC3CCN(S(=O)(=O)C4CC4)CC3)nc2c(N2CC3(C2)CC(C)(O)C3)n1 [Compound 78, 2-(2-((1-(cyclopropylsulfonyl)piperidin-4-yl)amino)-6-methylpyrido[3,4-d]pyrimidin-8-yl)-6-methyl-2-azaspiro[3.3]heptan-6-ol] | 200 to 500 nM | 200 to 500 nM | < 200 nM
Cc1cc2cnc(NC3CCN(S(C)(=O)=O)CC3)nc2c(N2CC3(C2)CC(C)(O)C3)n1 [Compound 79, 6-methyl-2-(6-methyl-2-((1-(methylsulfonyl)piperidin-4-yl)amino)pyrido[3,4-d]pyrimidin-8-yl)-2-azaspiro[3.3]heptan-6-ol] | 200 to 500 nM | 200 to 500 nM | < 200 nM
Cc1cc2cnc(NC3CCN(S(C)(=O)=O)CC3)nc2c(N2CC3(CNC(=O)C3)C2)n1 [Compound 81, 2-(6-methyl-2-((1-(methylsulfonyl)piperidin-4-yl)amino)pyrido[3,4-d]pyrimidin-8-yl)-2,6-diazaspiro[3.4] octan-7-one] | 200 to 500 nM | 200 to 500 nM | < 200 nM
Cc1cc2cnc(NC3CCN(S(C)(=O)=O)CC3)nc2c(N2CC3(CCC(=O)NC3)C2)n1 [Compound 82, 2-(6-methyl-2-((1-(methylsulfonyl)piperidin-4-yl)amino)pyrido[3,4-d]pyrimidin-8-yl)-2,6-diazaspiro[3.5] nonan-7-one] | 200 to 500 nM | 200 to 500 nM | 200 to 500 nM
Cc1cc2cnc(Nc3ccc(CS(C)(=O)=O)cc3)nc2c(N2CC(O)(C3CC3)C2)n1 [Compound 83, 3-cyclopropyl-1-(6-methyl-2-((4-((methylsulfonyl)methyl)phenyl)amino)pyrido[3,4-d]pyrimidin-8-yl)azetidin-3-ol] | < 200 nM | 200 to 500 nM | < 200 nM
Cc1cc2cnc(NC3CCN(S(=O)(=O)c4cnn(C)c4)CC3)nc2c(N2CC3(CCNCC3(F)F)C2)n1 [Compound 87, 8-(5,5-difluoro-2,7-diazaspiro[3.5]nonan-2-yl)-6-methyl-N-(1-((1-methyl-1H-pyrazol-4-yl)sulfonyl)piperidin-4-yl)pyrido[3,4-d]pyrimidin-2-amine] | < 200 nM | < 200 nM | < 200 nM
Cc1cc2cnc(NC3CCN(S(C)(=O)=O)CC3)nc2c(C2CC(O)(C3CC3)C2)n1 (stereo not drawn) [Compound 88, 1-cyclopropyl-3-(6-methyl-2-((1-(methylsulfonyl)piperidin-4-yl)amino)pyrido[3,4-d]pyrimidin-8-yl)cyclobutan-1-ol] | < 200 nM | 200 to 500 nM | < 200 nM

Source: US20250235456A1, “METHODS OF USE FOR AZA-QUINAZOLINE COMPOUNDS” (Iambic Therapeutics, Inc., priority 2024, published 2025)
